Here are results for 30 compounds from patent publication US6943181B2, “Use of substituted gamma-lactone compounds as pharmaceutical preparations” (Grunenthal GmbH, priority 2001, dated 2005).

The assay addresses T1, nitrogen monoxide synthase (NO synthase) (Rattus norvegicus, UniProt P29476).
T1 construct: the supernatant was then decanted off and frozen in portions; from tissue; host or cells: rat cerebellum (homogenate, 20,000 g supernatant)
Briefly: HTS-NOS assay (nitrogen monoxide synthase assay). The format is biochemical. Particulars: compound at 10 μM; enzyme preparation from rat cerebella; [3H]-arginine substrate. The text has this:
This assay makes it possible to determine the percentage inhibition of NO synthase by a compound of the general formula I used according to the invention by measuring NOS activity on exposure to the compound. NO synthase is here mixed under suitable conditions together with radioactively labelled arginine and the particular compound of the general formula I. After termination of the NO formation reaction at a predetermined time, the quantity of unconverted arginine is directly or indirectly determined. […] This assay may be carried out at follows: • (a) Incubation of the NO synthase with labelled arginine as the substrate in a reaction vessel, • (b) Separation of the labelled arginine from the labelled citrulline optionally arising as a product of the enzymatic reaction at a time at which the concentration of citrulline is rising, • (c) Measurement of the quantity of arginine separated in each case.
Separation is performed by means of a filter plate membrane.
Radioactive arginine is used as the substrate in this HTS-NOS assay. Depending on the type of microtitre plate (MTP), the assay volume may be selected in the range between 25 μl and 250 μl. Depending on the enzyme source used, cofactors and coenzymes are added. The batches are incubated in this microtitre plate (assay MTP) according to step (a) at room temperature and, depending on the enzyme activity used (units), lasts between 5 and 60 minutes. On completion of incubation (step (a)), the plate is placed in a cell harvester, which is equipped with an MTP which has a cation exchange membrane as a filter bottom (filter MTP). All the batches from the assay MTP are transferred into this filter MTP and suction filtered through a cation exchange filter plate, a paper filter loaded with phosphate groups. The filter MTP is then washed with buffer or water. This procedure binds the remaining substrate arginine onto the cation exchanger, while the enzymatically formed radioactive citrulline is quantitatively eluted. Once the filter MTP has been dried and scintillation liquid added, the bound arginine can be counted in the scintillation counter. Low radioactivity indicates an uninhibited NOS reaction. An inhibited enzyme reaction means that the radioactive arginine has not been converted. This means that there is a high level of radioactivity on the filter.
• Arginine, L-[2,3,4-^3H]-monohydrochloride; item no. […] The pH value of the buffer was adjusted to 7.4 at 25° C. • Washing medium: H2O Enzyme Preparation
Rat cerebella were used as the starting tissue. The animals were stunned and killed, the brain tissue, the cerebellum, was dissected out, 1 ml of enzyme preparation buffer (4° C.) was added per cerebellum, and the tissue was disrupted for 1 min at 6000 rpm in a Polytron homogeniser. The mixture was then centrifuged at 4° C. for 15 min at 20,000 g, and the supernatant was then decanted off and frozen in portions at −80° C. (discarding the precipitate).
96-Well MTPs with a well capacity of ≦250 μl were used Pipetting sequence: see table 1:
Once the pipetting operation was complete, a lid was laid on top of this MTP (assay MTP). Incubation at 25° C. (room temperature (RT)) for 5-60 min, depending on the quantity and activity of the enzyme used.
The contents of the assay MTP were then transferred with the assistance of a 96 well cell harvester into a 96 well cation exchange MTP (filter MTP) and suction filtered. A single washing with […] of H2O (from a trough) was then performed.
The plate was then dried for 1 h at 60° C. in a drying cabinet. The bottom of the filter MTP was then carefully sealed from beneath with a “back seal”. 35 μl of scintillating material were then pipetted into each well. The top of the plate was also sealed with a “top seal”. After 1 hour's waiting time, the plate was assessed on the β-counter.
Regarding “3-(5-Bromo-6-methyl-pyridin-2-ylamino)-5-methyl-5-naphthalen-l-yl-dihydro-furan-2-one [Example 53]”, the “NOS (% inhibition)” value came to 40%.
In turn, `Cc1ccc(C2(C)CC(Nc3ccc4cccc(O)c4n3)C(=O)O2)c(C)c1` (stereo not drawn) [Example 1, 5-(2,4-Dimethyl-phenyl)-3-(8-hydroxy-quinolin-2-ylamino)-5-methyl-dihydro-furan-2-one] returned an inhibition at 10 µM of 40%.
For the compound `Cc1cc(C)nc(NC2CC(C)(c3ccc(C)c(C)c3)OC2=O)c1` (stereo not drawn) [Example 2, 5-(3,4-Dimethyl-phenyl)-3-(4,6-dimethyl-pyridin-2-ylamino)-5-methyl-dihydro-furan-2-one], the inhibition at 10 µM worked out at 45%.
Still for that read-out and setting: the figure for `Cc1cc(C)nc(NC2CC(C)(c3ccc(C)cc3C)OC2=O)c1` (stereo not drawn) [Example 3, 5-(2,4-Dimethyl-phenyl)-3-(4,6-dimethyl-pyridin-2-ylamino)-5-methyl-dihydro-furan-2-one] is 42%; for `Cc1cc(C)nc(NC2CC(C)(c3ccc(C4CCCCC4)cc3)OC2=O)c1` (stereo not drawn) [Example 4, 5-(4-Cyclohexyl-phenyl)-3-(4,6-dimethyl-pyridin-2-ylamino)-5-methyl-dihydro-furan-2-one] it is 45%.
In turn, `Cc1cc(C)cc(C2(C)CC(Nc3cc(C)cc(C)n3)C(=O)O2)c1` (stereo not drawn) [Example 5, 5-(3,5-Dimethyl-phenyl)-3-(4,6-dimethyl-pyridin-2-ylamino)-5-methyl-dihydro-furan-2-one] yielded an inhibition at 10 µM of 58%.
The same measure, in the same setting: as for `Cc1ccnc(NC2CC(C)(c3ccc(C)c(C)c3)OC2=O)c1` (stereo not drawn) [Example 6, 5-(3,4-Dimethyl-phenyl)-5-methyl-3-(4-methyl-pyridin-2-ylamino)-dihydro-furan-2-one], the figure is 40%; as for `Cc1ccnc(NC2CC(C)(c3ccc(C)cc3C)OC2=O)c1` (stereo not drawn) [Example 7, 5-(2,4-Dimethyl-phenyl)-5-methyl-3-(4-methyl-pyridin-2-ylamino)-dihydro-furan-2-one], 45%; as for `Cc1ccnc(NC2CC(C)(c3ccc(C4CCCCC4)cc3)OC2=O)c1` (stereo not drawn) [Example 8, 5-(4-Cyclohexyl-phenyl)-5-methyl-3-(4-methyl-pyridin-2-ylamino)-dihydro-furan-2-one], 41%.
For the compound `Cc1cccc(C2(C)CC(Nc3ccc4ccccc4n3)C(=O)O2)c1` (stereo not drawn) [Example 9, 5-Methyl-3-(quinolin-2-ylamino)-5-m-tolyl-dihydro-furan-2-one], testing at 10 µM gave an inhibition of 51%.
Compound `Cc1ccc(C2(C)CC(Nc3cc(C)cc(C)n3)C(=O)O2)cc1` (stereo not drawn) [Example 10, 3-(4,6-Dimethyl-pyridin-2-ylamino)-5-methyl-5-p-tolyl-dihydro-furan-2-one] had an inhibition at 10 µM of 61%.
On to `Cc1cccc(C2(C)CC(Nc3cc(C)cc(C)n3)C(=O)O2)c1` (stereo not drawn) [Example 11, 3-(4,6-Dimethyl-pyridin-2-ylamino)-5-methyl-5-m-tolyl-dihydro-furan-2-one], for which the inhibition at 10 µM came to 81%.
On the same count and under the same terms, the figure for `CCOc1ccc(C2(C)CC(Nc3cc(C)cc(C)n3)C(=O)O2)cc1` (stereo not drawn) [Example 12, 3-(4,6-Dimethyl-pyridin-2-ylamino)-5-(4-ethoxy-phenyl)-5-methyl-dihydro-furan-2-one] is 59%; for `Cc1cnc(NC2CC(C)(c3ccc(C#N)cc3)OC2=O)c(Br)c1` (stereo not drawn) [Example 13, 4-[4-(3-Bromo-5-methyl-pyridin-2-ylamino)-2-methyl-5-oxo-tetrahydro-furan-2-yl]-benzonitrile] it is 44%; for `Cc1cnc(NC2CC(C)(c3ccc(C(C)(C)C)cc3)OC2=O)c(Br)c1` (stereo not drawn) [Example 14, 3-(3-Bromo-5-methyl-pyridin-2-ylamino)-5-(4-tert-butyl-phenyl)-5-methyl-dihydro-furan-2-one] it is 48%.
Take `CCCc1cccc(NC2CC(C)(c3ccc(C(C)(C)C)cc3)OC2=O)n1` (stereo not drawn) [Example 15, 5-(4-tert-Butyl-phenyl)-5-methyl-3-(6-propyl-pyridin-2-ylamino)-dihydro-furan-2-one]: testing at 10 µM gave an inhibition of 45%.
In turn, `Cc1ccnc(NC2CC(C)(c3ccc(C(C)(C)C)cc3)OC2=O)c1[N+](=O)[O-]` (stereo not drawn) [Example 16, 5-(4-tert-Butyl-phenyl)-5-methyl-3-(4-methyl-3-nitro-pyridin-2-ylamino)-dihydro-furan-2-one] yielded an inhibition at 10 µM of 47%.
Same read-out and setting: as for `Cc1nc(NC2CC(C)(c3ccc(Oc4ccccc4)cc3)OC2=O)ccc1Br` (stereo not drawn) [Example 17, 3-(5-Bromo-6-methyl-pyridin-2-ylamino)-5-methyl-5-(4-phenoxy-phenyl)-dihydro-furan-2-one], the figure is 43%; as for `CC(C)(C)c1ccc(C2(C)CC(Nc3ncccc3[N+](=O)[O-])C(=O)O2)cc1` (stereo not drawn) [Example 18, 5-(4-tert-Butyl-phenyl)-5-methyl-3-(3-nitro-pyridin-2-ylamino)-dihydro-furan-2-one], 40%; as for `CC1(c2ccc(Oc3ccccc3)cc2)CC(Nc2ncccc2OCc2ccccc2)C(=O)O1` (stereo not drawn) [Example 19, 3-(3-Benzyloxy-pyridin-2-ylamino)-5-methyl-5-(4-phenoxy-phenyl)-dihydro-furan-2-one], 40%.
The compound `CC(C)(C)c1ccc(C2(C)CC(Nc3ncccc3OCc3ccccc3)C(=O)O2)cc1` (stereo not drawn) [Example 20, 3-(3-Benzyloxy-pyridin-2-ylamino)-5-(4-tert-butyl-phenyl)-5-methyl-dihydro-furan-2-one] came in with an inhibition at 10 µM of 54%.
The compound `Cc1cc(C)nc(NC2CC(C)(c3ccc(Oc4ccccc4)cc3)OC2=O)c1` (stereo not drawn) [Example 21, 3-(4,6-Dimethyl-pyridin-2-ylamino)-5-methyl-5-(4-phenoxy-phenyl)-dihydro-furan-2-one] gave an inhibition at 10 µM of 91%.
Compound `Cc1cc(C)nc(NC2CC(C)(c3ccc(C(C)(C)C)cc3)OC2=O)c1` (stereo not drawn) [Example 22, 5-(4-tert-Butyl-phenyl)-3-(4,6-dimethyl-pyridin-2-yl-amino)-5-methyl-dihydrofuran-2-one] registered an inhibition at 10 µM of 44%.
The same measure, in the same setting: as for `Cc1ccnc(NC2CC(C)(c3ccc(Oc4ccccc4)cc3)OC2=O)c1` (stereo not drawn) [Example 23, 5-Methyl-3-(4-methyl-pyridin-2-ylamino)-5-(4-phenoxy-phenyl)-dihydro-furan-2-one], the figure is 79%; as for `Cc1ccnc(NC2CC(C)(c3ccc(C(C)(C)C)cc3)OC2=O)c1` (stereo not drawn) [Example 24, 5-(4-tert-Butyl-phenyl)-5-methyl-3-(4-methyl-pyridin-2-ylamino)-dihydro-furan-2-one], 84%; as for `CC1(c2ccc(C#N)cc2)CC(Nc2ncc(Br)cc2[N+](=O)[O-])C(=O)O1` (stereo not drawn) [Example 25, 4-[4-(5-Bromo-3-nitro-pyridin-2-ylamino)-2-methyl-5-oxo-tetrahydro-furan-2-yl]-benzonitrile], 45%.
Compound `CC1(c2ccc(C#N)cc2)CC(Nc2ncc(Br)cn2)C(=O)O1` (stereo not drawn) [Example 26, 4-[4-(5-Bromo-pyrimidin-2-ylamino)-2-methyl-5-oxo-tetrahydro-furan-2-yl]-benzonitrile] returned an inhibition at 10 µM of 43%.
Still for that read-out and setting: the figure for `CCCc1cccc(NC2CC(C)(c3cc4ccccc4s3)OC2=O)n1` (stereo not drawn) [Example 27, 5-Benzo[b]thiophen-2-yl-5-methyl-3-(6-propyl-pyridin-2-ylamino)-dihydro-furan-2-one] is 43%; for `Cc1cc(C)nc(NC2CC(C)(c3ccc(C(C)C)cc3)OC2=O)c1` (stereo not drawn) [Example 28, 3-(4,6-Dimethyl-pyridin-2-ylamino)-5-(4-isopropyl-phenyl)-5-methyl-dihydro-furan-2-one] it is 68%.
The same measure, in the same setting: the figure for `Cc1cc(C)nc(NC2CC(C)(c3cc4ccccc4o3)OC2=O)c1` (stereo not drawn) [Example 29, 5-Benzofuran-2-yl-3-(4,6-dimethyl-pyridin-2-ylamino)-5-methyl-dihydro-furan-2-one] is 40%.
